Columns and labels:
[1] = tested on: parasites (ring stage, in human red blood cell culture); assay: Parasite LDH growth assay (antiparasite potency, Parasite Assay); assay type: cell-based, Plasmodium falciparum; conditions: 0.7% rings, 2% haematocrit, 72 hours at 37° C., LDH readout of parasite growth
Outline: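 Growth was read by an LDH assay after a freeze–thaw cycle (−80 °C overnight, 4 h thaw at RT). Before that, parasites grew with compound for 72 h at 37 °C under gassed, humidified conditions. The input was a ring-stage culture adjusted to 0.7% parasitemia and 2% haematocrit in serum (5%)/albumax (0.5%)-supplemented RPMI-Hepes.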

[2] = target: T1, PMX (plasmepsin X) (Plasmodium falciparum, UniProt Q8IAS0); conditions: negative control, literature (Salmon et al. 2001); cited from earlier work
T1 construct: endogenous in cells

[3] = tested on: PMIX (plasmepsin IX); assay: Inhibition of PMIX function in parasite extracts: cleavage of PMIX substrates RAP1 and ASP, and PMIX autoprocessing; assay type: cell-based, P. falciparum
Description: To confirm that Example 1 was a dual inhibitor of PMX and PMIX function, the ability of this compound to inhibit cleavage of the known PMIX substrate Rhoptry Associated Protein 1 (RAP1) in parasite extracts was tested (Pino et al., 2017). RAP1 is a merozoite rhoptry protein that is localized to the parasitophorous vacuole after invasion and processed by both PMIX and SUB1 (Pino et al., 2017). […] RAP1 was not released into the parasite supernatant because it was deposited in the parasitophorous vacuole during the invasion process (Baldi, D., Andrews, K., Waller, R., Roos, D., Howard, R., Crabb, B. and Cowman, A. (2000)). RAP1 controls rhoptry targeting of RAP2 in the malaria parasite Plasmodium falciparum. Embo Journal 19, 2435-2443.
The development of Example 1 as a PMIX/PMX dual inhibitor of the P. falciparum parasite has allowed for the analysis of the function of these aspartic acid proteases. To do this, PMIX was processed to a 55 kDa (p55) protein and this was not inhibited by E64.

[4] = Plasmodium falciparum, Erythrocyte, 72 h

T1 sequence (Q8IAS0 222-573): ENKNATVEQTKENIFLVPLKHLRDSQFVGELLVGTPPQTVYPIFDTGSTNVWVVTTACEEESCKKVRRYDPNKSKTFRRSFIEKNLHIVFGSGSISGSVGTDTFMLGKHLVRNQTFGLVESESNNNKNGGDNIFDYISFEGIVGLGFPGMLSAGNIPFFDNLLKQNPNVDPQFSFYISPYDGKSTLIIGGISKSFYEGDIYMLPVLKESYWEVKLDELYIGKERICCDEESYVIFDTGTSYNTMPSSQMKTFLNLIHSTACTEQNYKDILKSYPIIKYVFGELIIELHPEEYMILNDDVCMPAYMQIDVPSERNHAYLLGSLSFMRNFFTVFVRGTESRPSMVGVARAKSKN

CCC1(CC)CC(=O)N(C2CC(C(=O)N(C)C)Oc3ccc(C(=O)N[C@@H]4c5ccccc5OC(C)(C)[C@H]4O)cc32)C(=N)N1 (stereo partly drawn) [Example 306, 4-(4,4-diethyl-2-imino-6-oxo-hexahydropyrimidin-1-yl)-N6-[(3S,4R)-3-hydroxy-2,2-dimethyl-chroman-4-yl]-N2,N2-dimethyl-chromane-2,6-dicarboxamide]
EC50 [1, 4]: 27.4 nM

CCC1(CC)CC(=O)N([C@H]2c3cc(C(=O)N[C@@H]4c5ccccc5OC(C)(C)[C@H]4O)ccc3OC2(COC)COC)C(=N)N1 [Example 307]
EC50 [1, 4]: 3.2 nM

CCC1(CC)CC(=O)N([C@@H]2C[C@@H](CCCCCCN)Oc3ccc(C(=O)N[C@H]4CC(C)(C)Oc5ccccc54)cc32)C(=N)N1 [Example 308, (2R,4R)-2-(6-aminohexyl)-4-(4,4-diethyl-2-imino-6-oxo-hexahydropyrimidin-1-yl)-N-[(4S)-2,2-dimethylchroman-4-yl]chromane-6-carboxamide]
EC50 [1, 4]: 40.5 nM

CCC1(CC)CC(=O)N([C@@H]2C[C@@H](CCCCCCNC(C)=O)Oc3ccc(C(=O)N[C@H]4CC(C)(C)Oc5ccccc54)cc32)C(=N)N1 [Example 309, (2R,4R)-2-(6-acetamidohexyl)-4-(4,4-diethyl-2-imino-6-oxo-hexahydropyrimidin-l-yl)-N-[(4S)-2,2-dimethylchroman-4-yl]chromane-6-carboxamide]
EC50 [1, 4]: 3.2 nM

CCC1(CC)CC(=O)N([C@@H]2C[C@@H](COCCOCCOCCN)Oc3ccc(C(=O)N[C@H]4CC(C)(C)Oc5ccccc54)cc32)C(=N)N1 [Example 310, (2S,4R)-2-[2-[2-(2-aminoethoxy)ethoxy]ethoxymethyl]-4-(4,4-diethyl-2-imino-6-oxo-hexahydropyrimidin-1-yl)-N-[(4S)-2,2-dimethylchroman-4-yl]chromane-6-carboxamide]
EC50 [1, 4]: 211 nM

CCC1(CC)CC(=O)N([C@@H]2C[C@@H](CCCCCCNC(=O)OC(C)(C)C)Oc3ccc(C(=O)N[C@H]4CC(C)(C)Oc5ccccc54)cc32)C(=N)N1 [Example 311, tert-butyl N-[6-[(2R,4R)-4-(4,4-diethyl-2-imino-6-oxo-hexahydropyrimidin-1-yl)-6-[[(4S)-2,2-dimethylchroman-4-yl]carbamoyl]chroman-2-yl]hexyl]carbamate]
EC50 [1, 4]: 2.4 nM

CCC1(CC)CC(=O)N([C@@H]2C[C@@H](COCCOCCOCCNC(C)=O)Oc3ccc(C(=O)N[C@H]4CC(C)(C)Oc5ccccc54)cc32)C(=N)N1 [Example 312, (2S,4R)-2-[2-[2-(2-acetamidoethoxy)ethoxy]ethoxymethyl] -4-(4,4-diethyl-2-imino-6-oxo-hexahydropyrimidin-1-yl)-N-[(4S)-2,2-dimethylchroman-4-yl]chromane-6-carboxamide]
EC50 [1, 4]: 53.9 nM

CCC1(CC)CC(=O)N([C@H]2C[C@H](COCCOCCOCCNC(=O)OC(C)(C)C)Oc3ccc(C(=O)N[C@H]4CC(C)(C)Oc5ccccc54)cc32)C(=N)N1 [Example 313, tert-butyl N-[2-[2-[2-[[(2R,4S)-4-(4,4-diethyl-2-imino-6-oxo-hexahydropyrimidin-l-yl)-6-[[(4S)-2,2-dimethylchroman-4-yl]carbamoyl]chroman-2-yl]methoxy]ethoxy]ethoxy]ethyl]carbamate]
EC50 [1, 4]: 260 nM

CCC1(CC)CC(=O)N([C@@H]2C[C@@H](COCCOCCOCCNC(=O)OC(C)(C)C)Oc3ccc(C(=O)N[C@H]4CC(C)(C)Oc5ccccc54)cc32)C(=N)N1 [Example 314, tert-butyl N-[2-[2-[2-[[(2S,4R)-4-(4,4-diethyl-2-imino-6-oxo-hexahydropyrimidin-l-yl)-6-[[(4S)-2,2-dimethylchroman-4-yl]carbamoyl]chroman-2-yl]methoxy]ethoxy]ethoxy]ethyl]carbamate]
EC50 [1, 4]: 7.3 nM

CC(C)C[C@H](NC(=O)[C@H]1O[C@@H]1C(=O)O)C(=O)NCCCCN=C(N)N [Example E64]
SERAS processing [2]: does not affect SERAS processing
ASP cleavage (p87 to p47) by PMIX ([3]; treated parasites): processed into a 47 kDa polypeptide (p47)
PMIX processing to 55 kDa (p55) protein (autocatalytic cleavage) ([3]; treated parasites): not inhibited
RAP1 processing (p87 to p82 and p69) by PMIX and SUB1 ([3]; treated parasites / merozoites): processed normally by PMIX and SUB1

(4R)-4-(4,4-diethyl-2-imino-6- oxo-hexahydropyrimidin-1- yl)-N-[2-(hydroxymethyl)- methyl-3H-benzofuran-3- yl]chromane-6-carboxamide [Example 176B]
EC50 [1]: 7.8 nM

— patent US12350270B2, “Antimalarial agents” (Merck Sharp & Dohme LLC, priority 2019, dated 2025)
